From patent publication EP0183174A2, “Substituted phenoxy urea, processes for its preparation and herbicide containing it as active ingredient” (KUMIAI CHEMICAL INDUSTRY CO., LTD., priority 1984, dated 1986)

Legend:
Japanese bulrush = experiment: Test Example 1: herbicidal test by water treatment in a paddy field; format: in vivo, Scir^pus juncoides Roxb.; parameters: key: 5: Withered; 4.5: Herbicidal effect (or phytotoxicity) in a range of 90 to 99%; 4: Herbicidal effect (or phytotoxicity) in a range of 80 to 89%; 3.5: Herbicidal effect (or phytotoxicity) in a range of 70 to 79%; 3: Herbicidal effect (or phytotoxicity) in a range of 60 to 69%; 2.5: Herbicidal effect (or phytotoxicity) in a range of 50 to 59%; 2: Herbicidal effect (or phytotoxicity) in a range of 40 to 49%; 1.5: Herbicidal effect (or phytotoxicity) in a range of 30 to 39%; 1: Herbicidal effect (or phytotoxicity) in a range of 20 to 29%; 0.5: Herbicidal effect (or phytotoxicity) in a range of 1 to 19%; 0: No herbicidal effect (or no phytotoxicity); settings: evaluated thirty days after application
Description: (§1) Into each porcelain pot having a diameter of 10 cm, paddy soil was filled and puddled, and seeds of barnyardgrass (Echinochloa crus-galli L.), smallflower flatsedge, monochoria and Japanese bulrush were sown, and water was filled in a-depth of 3 cm. One day later, a predetermined amount of the wettable powder prepared in Formulation Example 3 and diluted with water was dropwise applied to the surface of the water (dose of the active ingredient: 4 kg/hectare). Thereafter, they were grown in a green house. Thirty days after the application, the herbicidal effects were evaluated in accordance with the standards as identified in Table 5.

[1] = tested on: barnyardgrass (Echinochloa crus-galli L.); experiment: as above; format: in vivo; parameters: key: 5: Withered; 4.5: Herbicidal effect (or phytotoxicity) in a range of 90 to 99%; 4: Herbicidal effect (or phytotoxicity) in a range of 80 to 89%; 3.5: Herbicidal effect (or phytotoxicity) in a range of 70 to 79%; 3: Herbicidal effect (or phytotoxicity) in a range of 60 to 69%; 2.5: Herbicidal effect (or phytotoxicity) in a range of 50 to 59%; 2: Herbicidal effect (or phytotoxicity) in a range of 40 to 49%; 1.5: Herbicidal effect (or phytotoxicity) in a range of 30 to 39%; 1: Herbicidal effect (or phytotoxicity) in a range of 20 to 29%; 0.5: Herbicidal effect (or phytotoxicity) in a range of 1 to 19%; 0: No herbicidal effect (or no phytotoxicity); settings: evaluated thirty days after application
Description: as §1

smallflower flatsedge = experiment: as above; format: in vivo, Cvperus diffcrmis L.; parameters: key: 5: Withered; 4.5: Herbicidal effect (or phytotoxicity) in a range of 90 to 99%; 4: Herbicidal effect (or phytotoxicity) in a range of 80 to 89%; 3.5: Herbicidal effect (or phytotoxicity) in a range of 70 to 79%; 3: Herbicidal effect (or phytotoxicity) in a range of 60 to 69%; 2.5: Herbicidal effect (or phytotoxicity) in a range of 50 to 59%; 2: Herbicidal effect (or phytotoxicity) in a range of 40 to 49%; 1.5: Herbicidal effect (or phytotoxicity) in a range of 30 to 39%; 1: Herbicidal effect (or phytotoxicity) in a range of 20 to 29%; 0.5: Herbicidal effect (or phytotoxicity) in a range of 1 to 19%; 0: No herbicidal effect (or no phytotoxicity); settings: evaluated thirty days after application
Description: as §1

monochoria = experiment: as above; format: in vivo, Monochoria vaginalis Presl; parameters: key: 5: Withered; 4.5: Herbicidal effect (or phytotoxicity) in a range of 90 to 99%; 4: Herbicidal effect (or phytotoxicity) in a range of 80 to 89%; 3.5: Herbicidal effect (or phytotoxicity) in a range of 70 to 79%; 3: Herbicidal effect (or phytotoxicity) in a range of 60 to 69%; 2.5: Herbicidal effect (or phytotoxicity) in a range of 50 to 59%; 2: Herbicidal effect (or phytotoxicity) in a range of 40 to 49%; 1.5: Herbicidal effect (or phytotoxicity) in a range of 30 to 39%; 1: Herbicidal effect (or phytotoxicity) in a range of 20 to 29%; 0.5: Herbicidal effect (or phytotoxicity) in a range of 1 to 19%; 0: No herbicidal effect (or no phytotoxicity); settings: evaluated thirty days after application
Description: as §1

Paddy rice = experiment: Test Example 2: herbicidal test for selectivity between rice and barnyardgrass (phytotoxicity); format: in vivo; settings: thirty days after application
Description: (§2) Into each 1/5000 are Wager pot, paddy soil was filled and puddled, then seeds of barnyardgrass were sown and grown until they reached 2-leaf stage. The barnyardgrass of 2-leaf stage was thinned out to adjust the number of barnyardgrass to fifteen per pot, and rice seedlings of 2-leaf stage were transplanted in the same pot. […] Thereafter, they were grown in a green house, and thirty days after the application, the herbicidal effects and phytotoxicity were evaluated in accordance with the standards as identified in Table 5.

barnyardgrass = experiment: Test Example 2: herbicidal test for selectivity between rice and barnyardgrass (herbicidal effects); format: in vivo, Echinochloa crus-galli L.; settings: barnyardgrass of 2-leaf stage, thirty days after application
Description: as §2

[2] = Herbicidal activity of the prior-art compound, used in the same manner as the compound of the invention (general statement); format: in vivo; settings: used in the same manner as the compound of the present invention
[3] = water treatment in paddy field pot, dose of active ingredient 4 kg/hectare
[4] = dose of the active ingredient 4 kg/hectare, wettable powder applied to water surface one day after sowing

## 3-(2,5-Dichlorophenoxy)-1,1-dimethyl urea trichloroacetate [Compound No. 185]
Japanese bulrush; [3]
  Herbicidal effects Japanese bulrush: 5
[1]; [3]
  Herbicidal effects Barnyard grass: 5
Smallflower flatsedge; [3]
  Herbicidal effects Small flower flatsedge: 5
monochoria; [3]
  Herbicidal effects Monochoria: 5

## 3-(3,5-Dichlorophenoxy)-1,1-dimethyl urea trichloroacetate [Compound No. 184]
Japanese bulrush; [3]
  Herbicidal effects Japanese bulrush: 5
[1]; [3]
  Herbicidal effects Barnyard grass: 5
Smallflower flatsedge; [3]
  Herbicidal effects Small flower flatsedge: 5
monochoria; [3]
  Herbicidal effects Monochoria: 5

## NC(=O)NOc1cccc(Cl)c1 [Comparative Compound]
Japanese bulrush; [3]
  Herbicidal effects Japanese bulrush: 0
[1]; [3]
  Herbicidal effects Barnyard grass: 0
Smallflower flatsedge; [3]
  Herbicidal effects Small flower flatsedge: 0
monochoria; [3]
  Herbicidal effects Monochoria: 0

## C=CCNC(=O)NOc1cc(Cl)ccc1Cl [Compound No. 2, 1-Allyl-3-(2,5-dichlorophenoxy) urea]
Japanese bulrush; [4]
  Herbicidal effects Japanese bulrush: 5
[1]; [4]
  Herbicidal effects Barnyard grass: 5
Smallflower flatsedge; [4]
  Herbicidal effects Small flower flatsedge: 5
Paddy rice; Dose 0.5 kg/Ha, transplanted rice seedlings of 2-leaf stage
  Phytotoxicity Paddy rice: 0
Paddy rice; Dose 1 kg/Ha, transplanted rice seedlings of 2-leaf stage
  Phytotoxicity Paddy rice: 1 (Herbicidal effect (or phytotoxicity) in a range of 20 to 29%)
barnyardgrass; Dose 0.5 kg/Ha
  Herbicidal effects Barnyard grass: 5
barnyardgrass; Dose 1 kg/Ha
  Herbicidal effects Barnyard grass: 5
monochoria; [4]
  Herbicidal effects Monochoria: 5

## O=C(NOc1cccc(Cl)c1Cl)NC1CCCCC1 [Compound No. 3, 1-Cyclohexyl-3-(2,3-dichlorophenoxy) urea]
Japanese bulrush; [4]
  Herbicidal effects Japanese bulrush: 5
[1]; [4]
  Herbicidal effects Barnyard grass: 5
Smallflower flatsedge; [4]
  Herbicidal effects Small flower flatsedge: 5
monochoria; [4]
  Herbicidal effects Monochoria: 5

## CN(C)C(=O)Nc1ccc(Cl)c(Cl)c1 [DCMU, reference compound]
Paddy rice; Dose 0.25 kg/Ha, rice seedlings of 2-leaf stage transplanted, water surface application
  Phytotoxicity Paddy rice: 2 (Herbicidal effect (or phytotoxicity) in a range of 40 to 49%)
Paddy rice; Dose 0.5 kg/Ha, rice seedlings of 2-leaf stage transplanted, water surface application
  Phytotoxicity Paddy rice: 4 (Herbicidal effect (or phytotoxicity) in a range of 80 to 89%)
Paddy rice; Dose 1 kg/Ha, rice seedlings of 2-leaf stage transplanted, water surface application
  Phytotoxicity Paddy rice: 5
barnyardgrass; Dose 0.25 kg/Ha, water surface application
  Herbicidal effects Barnyard grass: 3 (Herbicidal effect (or phytotoxicity) in a range of 60 to 69%)
barnyardgrass; Dose 0.5 kg/Ha, water surface application
  Herbicidal effects Barnyard grass: 5
barnyardgrass; Dose 1 kg/Ha, water surface application
  Herbicidal effects Barnyard grass: 5

## NC(=O)NOc1cccc(Cl)c1 [m-chlorophenoxy urea]
[2]
  herbicidal activites: does not show any herbicidal activites
